tested on: PDE4; test: PDE4 inhibition, scintillation proximity assay (SPA); assay type: biochemical; details: scintillation proximity assay (SPA); evaluated as classes A, B, C; read-out: PDE4 Inhibitory Activity (concentration for the inhibition rate of 50%);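 on PDE4 Inhibitory Activity (concentration for the inhibition rate of 50%): A below 100 nM B 100 to below 1000 nM C 1000 nM or more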
Outline: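 Compound pre-diluted 1:10 in 50 mM Tris-HCl pH 7.4, 8.3 mM MgCl2, 1.7 mM EGTA, 3 mg/mL BSA, then incubated with PDE4 and [2,8-3H]-cAMP for 120 min at room temperature. Product captured on ZnSO4-containing YSi-SPA beads for 15 min; radioactivity counted against no-enzyme blank and DMSO control.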

| Compound | IC50 |
| --- | --- |
| FC(F)(F)Oc1c(Cl)cc(-c2nccs2)c2oc(N3CC4CCC(C3)N4)nc12 [Example 1, 2-(3,8-Diazabicyclo[3.2.1]octan-3-yl)-5-chloro-7-(thiazol-2-yl)-4-(trifluoromethoxy)benzo[d]oxazole] | < 100 nM |
| FC(F)(F)c1ccc(-c2nccs2)c2oc(N3CC4CCC(C3)N4)nc12 [Example 31, 2-(3,8-Diazabicyclo[3.2.1]octan-3-yl)-7-(thiazol-2-yl)-4-(trifluoromethyl)benzo[d]oxazole] | < 100 nM |
| COC(=O)c1ccc(-c2nccs2)c2oc(N3CC4CCC(C3)N4)nc12 [Example 237, Methyl 2-(3,8-diazabicyclo[3.2.1]octan-3-yl)-7-(thiazol-2-yl) benzo[d]oxazole-4-carboxylate] | < 100 nM |
| CC(O)(c1ccc(-c2nccs2)c2oc(N3CC4CC(C3)N4)nc12)C(F)F (centres unmarked) [Example 296, 2-(2-(3,6-Diazabicyclo[3.1.1]heptan-3-yl)-7-(thiazol-2-yl)benzo[d]oxazol-4-yl)-1,1-difluoropropan-2-ol] | < 100 nM |
| NS(=O)(=O)c1cc(-c2nccs2)c2oc(N3CC4CCCC(C3)N4)nc2c1 [Example 59, 2-(3,9-Diazabicyclo[3.3.1]nonan-3-yl)-7-(thiazol-2-yl) benzo[d]oxazole-5-sulfonamide] | < 100 nM |
| O=C(c1ccc(-c2nccs2)c2oc(N3CC4CCC(C3)N4)nc12)N1CCOCC1 [Example 116, (2-(3,8-Diazabicyclo[3.2.1]octan-3-yl)-7-(thiazol-2-yl)benzo[d]oxazol-4-yl)(morpholino)methanone] | < 100 nM |
| CC(O)(c1ccc(-c2nccs2)c2oc(N3CC4CC(C3)N4)nc12)C(F)F (centres unmarked) [Example 126, 2-(2-(3,6-Diazabicyclo[3.1.1]heptan-3-yl)-7-(thiazol-2-yl)benzo[d]oxazol-4-yl)-1,1-difluoropropan-2-ol] | < 100 nM |
| CC(C)(O)C(F)(F)Oc1ccc(-c2ncco2)c2oc(N3CC4CC(C3)N4)nc12 [Example 290, 1-((2-(3,6-Diazabicyclo[3.1.1]heptan-3-yl)-7-(oxazol-2-yl)benzo[d]oxazol-4-yl)oxy)-1,1-difluoro-2-methylpropan-2-ol] | < 100 nM |
| CC(C)(O)c1cc(-c2cscn2)c2oc(N3CC4CC(C3)N4)nc2c1OC(F)(F)F [Example 288, 2-(2-(3,6-Diazabicyclo[3.1.1]heptan-3-yl)-7-(thiazol-4-yl)-4-(trifluoromethoxy)benzo[d]oxazol-5-yl)propan-2-ol] | < 100 nM |
| OC(c1ccc(-c2nccs2)c2oc(N3CC4CC(C3)N4)nc12)C(F)(F)F (centres unmarked) [Example 120, 1-(2-(3,6-Diazabicyclo[3.1.1]heptan-3-yl)-7-(thiazol-2-yl)benzo[d]oxazol-4-yl)-2,2,2-trifluoroethan-1-ol] | < 100 nM |

same assay, conditions: scintillation proximity assay; class symbols; read-out: PDE4 Inhibitory Activity

| Compound | IC50 |
| --- | --- |
| FC(F)(/C=C/c1cccnc1)Oc1ccc(-c2nccs2)c2oc(N3CC4CC(C3)N4)nc12 [Example 406, (E)-2-(3,6-diazabicyclo [3.1.1]heptan-3-yl)-4-((1,1-difluoro-3-(pyridin-3-yl)allyl)oxy)-7-(thiazol-2-yl) benzo[d] oxazole] | < 100 nM |
| O=C(NO)c1ccc(-c2nccs2)c2oc(N3CC4CC(C3)N4)nc12 [Example 367, 2-(3,6-diazabicyclo[3.1.1]heptan-3-yl)-N-hydroxy-7-(thiazol-2-yl)benzo[d] oxazole-4-carboxamide] | < 100 nM |
| CN(CCO)S(=O)(=O)c1ccc(-c2nccs2)c2oc(N3CC4CC(C3)N4)nc12 [Example 389, 2-(3,6-diazabicyclo[3.1.1]heptan-3-yl)-N-(2-hydroxyethyl)-N-methyl-7-(thiazol-2-yl)benzo[d] oxazole-4-sulfonamide] | < 100 nM |
| CC(O)c1cc(-c2nccs2)c2oc(N3CC4CCC(C3)N4O)nc2c1C(F)(F)F (centres unmarked) [Example 384, 3-(5-(1-hydroxy-ethyl)-7-(thiazol-2-yl)-4-(trifluoro-methyl)benzo[d]oxazol-2-yl)-3,8-diazabicyclo[3.2.1] octan-8-ol] | > 1000 nM |

Reference: patent US10669283B2, “Compound and pharmacologically acceptable salt thereof” (MEIJI SEIKA PHARMA CO., LTD., priority 2016, dated 2020)
